Reference: patent publication US20210177856A1, “USE OF ATR INHIBITORS IN COMBINATION WITH PARP INHIBITORS” (Repare Therapeutics Inc., priority 2019, published 2021)

How the values were obtained:
DLD1 BRCA2−/− cells = experiment: 48 h treatment, CTG viability, DLD1 BRCA2−/− cells; type: cell-based; conditions: 48-hr treatment with combination of Compound 121 and talazoparib; FIGS. 8A and 8B
Method: (§1) FIG. 8A is a chart showing dose response curves of DLD1 BRCA2+/+ cells to talazoparib in the absence (DMSO) or presence of indicated concentrations of Compound 121. Cells were treated for 48 h, followed by removal of the compounds and growth in fresh media. Viability was measured at day 6 by a CTG assay. Mean of three independent experiments±SD. Solid lines, non-linear least squares fit to a four-parameter dose-response model. IC50 values are indicated below panels.
as §1, with “8B” for “8A”, “BRCA2−/−” for “BRCA2+/+”, “9” for “6”

5637 RNASEH2B−/− cells = experiment: ZIP synergy matrix and 7-day CTG viability assay, 5637 RNASEH2B−/− cells; type: cell-based; conditions: for concentration at maximum synergy, lower in RNASEH2B−/− than in RNASEH2B+/+ cells: FIGS. 1A and 1B
Method: (§2) FIG. 1B is chart showing ZIP synergy score matrix in RNASEH2B−/− cells. […] Score of >10 indicates synergy, while <(−10) indicates antagonism. Dashed lines represent the IC50 value of each compound in the respective cell line. […] Viability was measured with a 7-day CTG assay. Mean of three independent experiments±SD. Solid lines, non-linear least squares fit to a four-parameter dose-response model. IC50 values are indicated below panels. […] Viability was measured with a 7-day CTG assay. Mean of three technical replicates±SD. Solid lines, non-linear least squares fit to a four-parameter dose-response model. IC50 values are indicated below panels.

MIAPACA2 ATM−/− cells = experiment: 48 h treatment, CTG viability at day 6, MIAPACA2 ATM−/− cells; type: cell-based; conditions: 48 h treatment with combination of niraparib and Compound 121; MIAPACA2 ATM CRISPR knockout; FIGS. 6A and 6B
Method: (§3) Cells were treated for 48 h, followed by removal of the compounds and growth in fresh media. Viability was measured at day 6 by a CTG assay. Mean of three technical replicates±SD. Solid lines, non-linear least squares fit to a four-parameter dose-response model. IC50 values are indicated below panels. […] Cells were treated for 48 h, followed by removal of the compounds and growth in fresh media. Viability was measured at day 6 by a CTG assay. Mean of three technical replicates±SD. Solid lines, non-linear least squares fit to a four-parameter dose-response model. IC50 values are indicated below panels.

[1] = test system: RPE1-hTERT TP53−/− CDK12−/− cells; experiment: 48 h treatment, CTG viability at day 6, RPE1-hTERT TP53−/− CDK12−/− cells; type: cell-based; conditions: 48-hr treatment with combination of Compound 121 and niraparib; FIGS. 7A and 7B
Method: as §3, with “independent experiments±SD.” for “technical replicates±SD.”

[2] = test system: ALT-positive (ALT+) cancer cell lines; experiment: Cell viability of ALT+ and ALT− cancer cell line panels; type: cell-based; conditions: combination of low-nanomolar doses of Compound 121 and talazoparib; five ALT+ lines; FIGS. 9A and 9B
Method: FIG. 9A is a chart showing cell viability for ALT+ and ALT− cell lines that were untreated, treated with talazoparib alone, treated with compound 121 alone, or treated with a combination of talazoparib and compound 121.
FIG. 9B is a chart showing the cell viability for ALT+ and ALT− cells that were treated with a combination of talazoparib and compound 121.

5637 RNASEH2B+/+ cells = experiment: ZIP synergy matrix and 7-day CTG viability assay, 5637 RNASEH2B+/+ cells; type: cell-based; conditions: combination of Compound 121 and niraparib, FIG. 1A
Method: as §2, with “1A” for “1B”, “RNASEH2B+/+” for “RNASEH2B−/−”

[3] = test system: 5637 RNASEH2B+/+ and −/− cells; conditions: FIG. 5B
Method: FIG. 5A is a scheme showing the experimental design. 5637 cells were treated with niraparib alone or niraparib combined with an IC50 concentration of Compound 121 for indicated times with or without removal of compounds. Cell viability was analyzed by a CellTiter Glo (CTG) assay 168 h post treatment.
FIG. 5B is a chart showing apparent niraparib IC50 values in 5637 RNASEH2B+/+ and −/− cells from experiments described in FIG. 5A. Values were obtained by fitting mean data from three independent experiments to a four-parameter dose-response model. Error bars, 95% confidence interval (CI).
To guide the combined dosing of Compound 121 and niraparib in RNASEH2B-deficient tumor cells, a continuous 168 h concomitant treatment of 5637 RNASEH2B+/+ and −/− cells with both compounds was compared to either a 48 or 72 h treatment followed by removal of compounds and growth in drug-free media (FIG. 5A).

[4] = test system: RPE1-hTERT TP53−/− RNASEH2B−/− cells; experiment: 6-day CTG viability assay, RPE1-hTERT TP53−/− RNASEH2B−/− cells; type: cell-based; conditions: Compound 43 combined with niraparib; compared with Compound 121 plus niraparib; FIGS. 3A and 3B
Method: Viability was measured with a 6-day CTG assay. Mean of three independent experiments±SD. Solid lines, non-linear least squares fit to a four-parameter dose-response model. IC50 values are indicated below panels. […] Viability was measured with a 6-day CTG assay. Mean of three independent experiments±SD. Solid lines, non-linear least squares fit to a four-parameter dose-response model. IC50 values are indicated below panels.

[5] = combination of Compound 121 and niraparib, 5637 cells

apparent IC50 value of niraparib ([3]; in presence of Compound 121 (IC50 concentration), dosed continuously for 168 h) | difference in apparent IC50 values of niraparib when treatment shortened ([3]; with Compound 121, 72 or 48 h treatment then drug-free media vs 168 h continuous) | SMILES | sensitization of isogenic cell line lacking BRCA2 (DLD1 BRCA2−/− cells) | sensitization of RNASEH2B-deficient cells (5637 RNASEH2B−/− cells; Compound 121 combined with talazoparib, 5637 cells, 7-day CTG, FIGS. 4A and 4B) | synergy with niraparib (ZIP synergy score) (5637 RNASEH2B−/− cells; combination of Compound 121 and niraparib, 5637 RNASEH2B−/− cells, FIG. 1B) | concentration at maximum synergy, lower in RNASEH2B−/− than in RNASEH2B+/+ cells (5637 RNASEH2B−/− cells; [5]) | synergistic sensitization of ATM−/− clone (MIAPACA2 ATM−/− cells) | sensitization of isogenic cell line lacking CDK12 [1] | sensitivity of ALT+ panel relative to ALT− control panel [2] | synergy with niraparib (ZIP synergy score) (5637 RNASEH2B+/+ cells) | shift of apparent IC50 of niraparib from RNASEH2B+/+ to RNASEH2B−/− cells (5637 RNASEH2B−/− cells; in presence of Compound 121, 5637 cells, 7-day CTG, FIGS. 2A and 2B) | sensitization of RNASEH2B-deficient cells [4]
 |  | C[C@@H]1COCCN1c1cc([C@@]2(O)C[C@H]3CC[C@@H](C2)O3)c2cnn(-c3cc[nH]n3)c2n1 [Compound 121] | synergistically sensitized | strong sensitization | strongly synergized | ca. three-fold | > 300 × | synergistically sensitized | more sensitive | strongly synergized |  | 
decreased | No significant difference | NC(=O)c1cccc2cn(-c3ccc([C@@H]4CCCNC4)cc3)nc12 [niraparib, reference compound] |  |  |  | ca. ten-fold |  |  |  |  | ≤ 200 fold | 
 |  | C[C@@H]1COCCN1c1cc(-c2ccccc2S(C)(=O)=O)c2cnn(-c3cc[nH]n3)c2n1 [Compound 43] |  |  |  |  |  |  |  |  |  | sensitized RNASEH2B-deficient cells to a similar extent
